{"source": "patent US20020072485A1", "about": "“Prophylactic use of N-methyl-D-aspartate (NMDA) antagonists” (priority 2000, published 2002)", "key": {"[1]": {"tested_on": "static and dynamic allodynia in rats (paw incision model)", "experiment": "Paw incision model for surgical pain, post-surgery administration", "assay_type": "in vivo, rat", "text": "(§1) Basically, in this animal model, an incision is made in the hind paw of the rats, which induces a reproducible and quantifiable mechanical hyperalgesia in the rats lasting several days. Rats are anesthetized, and the plantar surface of the right hind paw of each rat is incised through the skin and fascia. The wound is then closed, for example with sutures, and allowed to heal. The rats are placed into wire mesh bottom cages, allowing access to the underside of their paws. After habituation, tactile allodynia (or “static allodynia”) can be evaluated by touching the right hind paw plantar surface with von Frey hairs in ascending order of force (measured in grams) until a paw-withdrawal response (paw withdrawal threshold or “PWT”) is elicited. Dynamic allodynia can be evaluated by stoking the plantar surface of the right hind paw and measuring (in seconds) the amount of time it takes for a rat to withdraw its paw (paw withdrawal latency or “PWL”).\nCP-101,606 was also tested post-surgically using the paw incision model, basically as described above. However, in this assay, rats are administered CP-101,606 (3, 10, or 30 mg/kg, s.c.), pregabalin (30 mg/kg, s.c.), or vehicle (s.c.) post-incision. A baseline is measured before incision and after incision, prior to drug. […] CP-101,606 produced a full reversal of static allodynia and a partial (approximately 40%) reversal of the dynamic subtype."}, "[2]": {"tested_on": "static and dynamic allodynia in rats (paw incision model)", "experiment": "Paw incision model for surgical pain, pre-surgery administration", "assay_type": "in vivo, rat", "details": "for PWL (paw withdrawal latency) compared to vehicle / PWT (paw withdrawal threshold) compared to vehicle: 72 hours, pre-surgical 10 and 30 mg/kg CP-101,606, pregabalin 30 mg/kg s.c.", "text": "as §1\nIn the pre-surgery administration assay, a PWT and PWL baseline is measured prior to drug administration and incision. The rats are then given drug (CP-101,606, at separate doses of 3, 10 or 30 mg/kg s.c.) or are given pregabalin (30 mg/kg s.c., as a positive control)), or vehicle (s.c.). The right hind paw each rat is then incised as described above. Measurements are then taken periodically, as described above."}, "[3]": {"tested_on": "animal models of pain perception", "details": "literature (Bernardi 1996; Taniguchi 1997); cited from earlier work"}, "[4]": {"biological_target": "NMDA receptors comprised of NR1/NR2B subunits (Homo sapiens, UniProt Q05586+Q13224)", "sequence (Q13224 27-1484, other chains not shown)": "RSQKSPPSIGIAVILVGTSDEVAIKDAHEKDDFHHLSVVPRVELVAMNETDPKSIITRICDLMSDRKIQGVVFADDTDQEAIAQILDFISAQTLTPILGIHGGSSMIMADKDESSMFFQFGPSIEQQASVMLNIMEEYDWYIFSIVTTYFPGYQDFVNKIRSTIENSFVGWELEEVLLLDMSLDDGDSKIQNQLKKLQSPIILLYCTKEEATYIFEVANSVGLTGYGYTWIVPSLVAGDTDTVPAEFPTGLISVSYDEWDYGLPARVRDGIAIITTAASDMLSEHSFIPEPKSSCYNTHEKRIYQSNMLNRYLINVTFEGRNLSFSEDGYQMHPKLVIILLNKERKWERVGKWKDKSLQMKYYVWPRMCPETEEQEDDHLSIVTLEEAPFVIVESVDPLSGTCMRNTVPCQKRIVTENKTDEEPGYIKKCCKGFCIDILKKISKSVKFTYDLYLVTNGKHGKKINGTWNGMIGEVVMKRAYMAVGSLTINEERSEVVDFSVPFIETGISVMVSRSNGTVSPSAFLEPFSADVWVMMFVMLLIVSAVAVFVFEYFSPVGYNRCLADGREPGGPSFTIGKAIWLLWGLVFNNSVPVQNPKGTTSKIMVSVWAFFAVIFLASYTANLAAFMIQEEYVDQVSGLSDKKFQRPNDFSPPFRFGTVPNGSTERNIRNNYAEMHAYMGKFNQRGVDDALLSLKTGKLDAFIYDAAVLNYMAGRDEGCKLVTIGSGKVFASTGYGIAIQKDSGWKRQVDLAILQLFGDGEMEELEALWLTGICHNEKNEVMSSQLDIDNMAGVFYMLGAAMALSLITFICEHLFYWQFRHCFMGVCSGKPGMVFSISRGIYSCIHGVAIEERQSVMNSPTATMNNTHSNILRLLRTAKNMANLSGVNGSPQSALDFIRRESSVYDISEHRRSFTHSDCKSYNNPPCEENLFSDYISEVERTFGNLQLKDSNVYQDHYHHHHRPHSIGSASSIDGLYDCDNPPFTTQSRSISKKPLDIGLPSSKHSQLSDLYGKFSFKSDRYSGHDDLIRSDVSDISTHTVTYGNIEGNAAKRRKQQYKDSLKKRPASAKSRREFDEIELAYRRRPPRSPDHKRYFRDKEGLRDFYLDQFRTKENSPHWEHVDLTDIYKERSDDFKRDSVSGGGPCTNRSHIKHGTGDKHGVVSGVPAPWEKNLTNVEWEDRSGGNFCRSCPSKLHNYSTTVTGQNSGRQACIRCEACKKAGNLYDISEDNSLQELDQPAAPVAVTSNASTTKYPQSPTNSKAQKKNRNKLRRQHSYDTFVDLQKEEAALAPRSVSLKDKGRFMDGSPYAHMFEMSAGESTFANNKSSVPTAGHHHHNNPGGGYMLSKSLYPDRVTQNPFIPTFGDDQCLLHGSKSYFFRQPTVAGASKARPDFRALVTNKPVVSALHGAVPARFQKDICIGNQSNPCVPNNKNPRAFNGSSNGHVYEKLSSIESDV", "details": "selectivity between NMDA receptor subtypes; cited from earlier work"}, "[5]": {"details": "post-incision administration, 30 mg/kg s.c."}, "[6]": {"details": "post-incision administration, s.c."}, "[7]": {"details": "pre-surgery administration, 30 mg/kg s.c."}, "[8]": {"details": "pre-surgery administration, s.c."}}}
{"smiles": "Oc1ccc2c(c1)OC[C@@H](N1CCC(O)(c3ccc(F)cc3)CC1)[C@H]2O", "note": "(relative stereo)", "values": [{"measurement": "melting point", "value": "159 to 160", "unit": "°C"}]}
{"smiles": "C[C@@H]([C@@H](O)c1ccc(O)cc1)N1CCC(O)(c2ccccc2)CC1", "note": "[CP-101,606, (+)-(1S, 2S)-1-(4-hydroxy-phenyl)-2-(4-hydroxy-4-phenylpiperidino)-1-propanol]", "values": [{"measurement": "duration of effect, dynamic allodynia", "setting": "[1]; [5]", "value": "two"}, {"measurement": "duration of effect, static allodynia", "setting": "[1]; [5]", "value": "three"}, {"measurement": "time of peak effect, dynamic allodynia", "setting": "[1]; [5]", "value": "two"}, {"measurement": "effect on static and dynamic subtypes of allodynia", "setting": "[1]; post-incision administration, 3, 10 or 30 mg/kg s.c., rats", "value": "dose-dependently diminished both static and dynamic subtypes of allodynia"}, {"measurement": "MED, dynamic allodynia", "setting": "[1]; [6]", "value": 30, "unit": "mg/kg"}, {"measurement": "MED, static allodynia", "setting": "[1]; [6]", "value": 10, "unit": "mg/kg"}, {"measurement": "reversal of static allodynia", "setting": "[1]; [6]", "value": "full reversal"}, {"measurement": "reversal of dynamic allodynia", "setting": "[1]; post-incision administration, s.c., partial reversal", "value": "approximately 40%"}, {"measurement": "PWL (paw withdrawal latency) compared to vehicle", "setting": "[2]", "value": "longer"}, {"measurement": "PWT (paw withdrawal threshold) compared to vehicle", "setting": "[2]", "value": "higher"}, {"measurement": "duration of antiallodynic action", "setting": "[2]; following pre-surgical administration", "value": "at least 48 hours"}, {"measurement": "latest time at which a preventive effect was seen", "setting": "[2]; post surgery, pre-surgical administration", "value": 72, "unit": "h"}, {"measurement": "time of peak effect, dynamic allodynia", "setting": "[2]; [7]", "value": "two"}, {"measurement": "time of peak effect, static allodynia", "setting": "[2]; [7]", "value": "two"}, {"measurement": "effect on static and dynamic subtypes of allodynia", "setting": "[2]; pre-surgery administration, 3, 10 or 30 mg/kg s.c., rats", "value": "dose-dependently blocked both static and dynamic subtypes of allodynia"}, {"measurement": "blockade of dynamic allodynia", "setting": "[2]; [8]", "value": "near full blockade"}, {"measurement": "blockade of static allodynia", "setting": "[2]; [8]", "value": "full blockade"}, {"measurement": "MED (minimum effective dosage), dynamic allodynia", "setting": "[2]; pre-surgery administration, s.c., PWL", "value": 10, "unit": "mg/kg"}, {"measurement": "MED (minimum effective dosage), static allodynia", "setting": "[2]; pre-surgery administration, s.c., PWT (von Frey hairs)", "value": 10, "unit": "mg/kg"}]}
{"smiles": "CC(C(O)c1ccc(O)cc1)N1CCC(Cc2ccccc2)CC1", "note": "(stereo not drawn) [Ifenprodil, ifenprodil]", "values": [{"measurement": "analgesic activity", "setting": "[3]", "value": "significant analgesic activity"}, {"measurement": "blockade of ion current, NR1/NR2B compared to NR1/NR2A, NR2C, or NR2D subunits", "setting": "[4]", "value": "more potent and efficacious"}]}
{"smiles": "CC(C)C[C@H](CN)CC(=O)O", "note": "[pregabalin, reference compound]", "values": [{"measurement": "PWL (paw withdrawal latency) compared to vehicle", "setting": "[2]", "value": "longer"}, {"measurement": "PWT (paw withdrawal threshold) compared to vehicle", "setting": "[2]", "value": "higher"}]}
